# Measured values published in patent US5624923A, “Tricyclic diazepine vasopressin antagonists and oxytocin antagonists” (priority 1995, dated 1997).
# Like-named read-outs stand apart in the source and are kept apart here.
# Key:
# Rat Hepatic V1 Receptors = molecular target: T1, Rat Hepatic V1 Receptors (Rattus norvegicus, UniProt P30560); assay: Binding Assay to Rat Hepatic V1 Receptors
# T1 construct: Rat liver plasma membranes expressing the vasopressin V1 receptor subtypes; from tissue; host or cells: rat liver plasma membranes
# T1 sequence (P30560 whole entry): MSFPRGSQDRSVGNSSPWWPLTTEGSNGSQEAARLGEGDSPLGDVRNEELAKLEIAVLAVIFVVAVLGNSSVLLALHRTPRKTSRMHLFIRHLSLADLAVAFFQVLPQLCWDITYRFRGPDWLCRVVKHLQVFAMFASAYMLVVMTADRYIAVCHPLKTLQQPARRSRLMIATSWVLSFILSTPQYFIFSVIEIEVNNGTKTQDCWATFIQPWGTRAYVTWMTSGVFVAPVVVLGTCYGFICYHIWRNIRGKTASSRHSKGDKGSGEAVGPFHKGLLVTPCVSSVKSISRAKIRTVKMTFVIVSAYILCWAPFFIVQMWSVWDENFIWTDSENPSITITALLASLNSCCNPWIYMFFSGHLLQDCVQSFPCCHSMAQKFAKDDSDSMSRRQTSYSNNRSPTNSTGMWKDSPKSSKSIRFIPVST
# Experimental: Binding Assay to Rat Hepatic V1 Receptors
# Rat liver plasma membranes expressing the vasopressin V1 receptor subtypes are isolated by sucrose density gradient according to the method described by Lesko et al., (1973). These membranes are quickly suspended in 50.0 mM Tris.HCl buffer, pH 7.4, containing 0.2% bovine serum albumin (BSA) and 0.1 mM phenylmethylsulfonylfluoride (PMSF) and kept frozen at -70° C. until used in subsequent binding experiments. For binding experiments, the following is added to the wells of a ninety-six well format microtiter plate: 100 μl of 100.0 mM Tris.HCl buffer containing 10.0 mM MgCl2, 0.2% heat inactivated BSA and a mixture of protease inhibitors: leupeptin, 1.0 mg %; aprotinin, 1.0 mg %; 1,10-phenanthroiine,2.0 mg %; trypsin inhibitor, 10.0 mg % and 0.1 mM PMSF, 20.0 μl of [phenylalanyl-3,4,5, -^3 H] vasopressin (S.A. 45.1 Ci/mmole) at 0.8 nM, and the reaction initiated by the addition of 80 μl of tissue membranes containing 20 μg of tissue protein. The plates are kept undisturbed on the bench top at room temperature for 120 min. to reach equilibrium. Non-specific samples are assayed in the presence of 0.1 μM of the unlabeled antagonist phenylalanylvasopressin, added in 20.0 μl volume.
# (§1) For test compounds, these are solubilized in 50% dimethylsulfoxide (DMSO) and added in 20.0 μl volume to a final incubation volume of 200 μl . Upon completion of binding, the content of each well is filtered off, using a Brandel® cell Harvester (Gaithersburg, Md.). The radioactivity trapped on the filter disk by the ligand-receptor complex is assessed by liquid scintillation counting in a Packard LS Counter, with an efficiency of 65% for tritium. The data are analyzed for IC50 values by the LUNDON-2 program for competition (LUNDON SOFTWARE, Ohio).
# [1] = molecular target: T2, Rat Kidney Medullary V2 Receptors (Rattus norvegicus, UniProt Q00788); assay: Binding Assay to Rat Kidney Medullary V2 Receptors
# T2 construct: Medullary tissues from rat kidneys are dissected out; from tissue; host or cells: rat kidney medulla membranes
# T2 sequence (Q00788 whole entry): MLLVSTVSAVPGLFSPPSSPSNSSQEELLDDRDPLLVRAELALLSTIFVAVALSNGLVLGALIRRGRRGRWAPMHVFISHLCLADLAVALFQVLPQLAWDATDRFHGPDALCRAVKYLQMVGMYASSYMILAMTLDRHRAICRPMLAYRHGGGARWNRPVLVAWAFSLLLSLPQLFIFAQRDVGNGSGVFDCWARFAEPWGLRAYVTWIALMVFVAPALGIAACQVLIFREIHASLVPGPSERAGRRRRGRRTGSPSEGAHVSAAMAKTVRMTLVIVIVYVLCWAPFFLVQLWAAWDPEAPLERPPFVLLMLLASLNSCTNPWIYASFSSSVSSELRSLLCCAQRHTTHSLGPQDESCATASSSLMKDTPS
# Experimental: Binding Assay to Rat Kidney Medullary V2 Receptors
# Medullary tissues from rat kidneys are dissected out, cut into small pieces and soaked in a […] sodium chloride solution containing 1.0 mM EDTA with many changes of the liquid phase, until the solution is clear of blood. The tissue is homogenized in a 0.25M sucrose solution containing 1.0 mM EDTA and 0.1 mM PMSF using a Potter-Elvehjem homogenizer with a teflon pestle. The homogenate is filtered through several layers (4 layers) of cheese cloth. The filtrate is rehomogenized using a dounce homogenizer, with a tight fitting pestle. The final homogenate is centrifuged at 1500× g for 15 min. The nuclear pellet is discarded and the supernatant fluid recentrifuged at 40,000× g for 30 min. The resulting pellet formed contains a dark inner part with the exterior., slightly pink. The pink outer part is suspended in a small amount of 50.0 mM Tris. HCl buffer, pH 7.4. The protein content is determined by the Lowry's method (Lowry et al., J. Biol. Chem., 1953). The membrane suspension is stored at -70° C. in 50.0 mM Tris HCl, containing 0.2% inactivated BSA and 0.1 mM PMSF in aliquots of 1.0 ml containing 10.0 mg protein per ml of suspension until use in subsequent binding experiments.
# as §1, with “The plates are left undisturbed on the bench top for 120 min to reach equilibrium. Non-specific binding is assessed in the presence of 1.0 μM of unlabeled ligand, added in 20 μl volume. For” for “For”, “μl.” for “μl .”
# Vasopressin V1 = Vasopressin V1 Antagonist Activity in Conscious Rats (vasopressin vasopressor response); format: in vivo, rat; details: 10 mg/kg i.v.
# Experimental: Vasopressin V1 Antagonist Activity in Conscious Rats
# Conscious rats are restrained in a supine position with elastic tape. The area at the base of the tail is locally anesthetized by subcutaneous infiltration with 2% procaine (0.2 ml). Using aseptic technique the ventral caudal tail artery is isolated and a cannula made of PE 10 and 20 (heat-fused) tubing is passed into the lower abdominal aorta. The cannula is secured, heparinized (1000 i.u./cc), sealed and the wound closed with one or two stitches of Dexon 4-0. The caudal vein is also cannulated in the same manner for intravenous drug administration. The duration of the surgery is approximately 5 minutes. Additional local anesthesia (2% procaine or lidocaine) is provided as needed.
# The animals are placed in plastic restraining cages in an upright position. The cannula is attached to a Statham P23Db pressure transducer and pulsatile blood pressure is recorded. […] The vasopressin injections are repeated 30,60,90,120,180,240 and 300 min. later. Percentage of antagonism by the compound is calculated using the pre-drug vasopressin vasopressor response as 100%.
# oxytocin receptors = molecular target: T3, oxytocin receptors (Rattus norvegicus, UniProt P70536); assay: Oxytocin Receptor Binding; details: for IC50: 1.0 nM [3H]oxytocin
# T3 construct: The uteri are dissected out, cleaned of fat and connective tissues; from tissue; host or cells: uterus of DES-treated female Sprague-Dawley rats
# T3 sequence (P70536 1-388): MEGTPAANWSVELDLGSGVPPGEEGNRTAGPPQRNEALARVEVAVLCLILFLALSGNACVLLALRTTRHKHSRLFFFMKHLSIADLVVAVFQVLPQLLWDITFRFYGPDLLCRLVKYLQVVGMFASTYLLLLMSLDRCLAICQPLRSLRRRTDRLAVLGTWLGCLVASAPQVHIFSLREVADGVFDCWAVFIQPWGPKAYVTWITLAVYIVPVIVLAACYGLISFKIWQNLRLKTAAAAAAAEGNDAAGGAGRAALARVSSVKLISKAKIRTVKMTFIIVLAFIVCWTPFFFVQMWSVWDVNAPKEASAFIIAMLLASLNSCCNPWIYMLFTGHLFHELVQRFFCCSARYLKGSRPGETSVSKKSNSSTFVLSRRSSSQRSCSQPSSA
# Experimental: Oxytocin Receptor Binding
# Female Sprague-Dawley rats weighing approximately 200-250 g are injected intramuscularly (i.m.) with 0.3 mg/kg of body weight of diethylstilbestrol (DES). The rats are sacrificed 18 hours later under pentobarbital anesthesia. The uteri are dissected out, cleaned of fat and connective tissues and rinsed in 50 ml of normal saline. The tissue pooled from six rats is homogenized in 50 ml of […] Tris.HCl, containing 0.5 mM dithiothreitol and 1.0 mM EDTA, adjusted to pH 7.4, using a polytron at setting 6 with three passes of 10 sec each. The homogenate is passed through two (2) layers of cheesecloth and the filtrate centrifuged at 1000× g for 10 min. The clear supernatant is removed and recentrifuged at 165,000× g for 30 min. The resulting pellet containing the oxytocin receptors is resuspended in 50.0 mM Tris.HCl containing 5.0 mM MgCl2 at pH 7.4, to give a protein concentration of 2.5 mg/ml of tissue suspension. This preparation is used in subsequent binding assays with [^3 H]Oxytocin.
# Binding of 3,5-[^3 H]Oxytocin ([^3 H]OT) to its receptors is done in microtiter plates using [^3 H]OT, at various concentrations, in an assay buffer of 50.0 mM Tris.HCl, pH 7.4 and containing 5.0 mM MgCl2, and a mixture of protease inhibitors: BSA, 0.1 mg; aprotinin, 1.0 mg; 1,10-phenanthroline, 2.0 mg; […], 10.0 mg; and PMSF, 0.3 mg per 100 ml of buffer solution. Non-specific binding is determined in the presence of 1.0 uM unlabeled OT. The binding reaction is terminated after 60 min , at 22° C. by rapid filtration through glass fiber filters using a Brandel® cell harvester (Biomedical Research and Development Laboratories, Inc., Gaithersburg, Md.). Competition experiments are conducted at equilibrium using 1.0 nM [^3 H]OT and varying the concentration of the displacing agents. The concentrations of agent displacing 50% of [^3 H]OT at its sites (IC50) are calculated by a computer assisted LUNDON-2 program (LUNDON SOFTWARE INC., Ohio, USA).
# Vasopressin V2 = Vasopressin V2 Antagonist Activity in Conscious Hydrated Rats; format: in vivo, rat; details: AVP 0.4 μg/kg i.p.
# Experimental: Vasopressin V2 Antagonist Activity in Conscious Hydrated Rats
# Conscious hydrated rats are treated with compounds under study from 0.1 to 100 mg/kg orally or vehicle. Two to four rats are used for each compound. One hour later, arginine vasopressin (AVP, antidiuretic hormore, ADH) dissolved in peanut oil is administered at 0.4 μg/kg intraperitoneally. Two rats in each test would not receive arginine vasopressin but only the vehicle (peanut oil) to serve as water-loading control. Twenty minutes later each rat is given 30 mL/kg of deionized water orally by gavage and is placed individually in a metabolic cage equipped with a funnel and a graduated glass cylinder to collect urine for four hours. Urine volume is measured and osmolality analyzed by use of a Fiske One-Ten osmometer (Fiske Assoc., Norwood, Mass., USA). Urinary sodium, potassium, and chloride are analyzed by use of ion-specific electrodes in a Beckman E3 (Electrolyte 3) Analyzer.
# [2] = rat liver membranes, read-out: V1 IC50
# [3] = rat kidney medulla membranes, read-out: V2 IC50
compound,measurement,setting,value
"Cc1ccccc1C(=O)Nc1ccc(C(=O)N2Cc3cccn3C(=O)c3ccccc32)cc1 [Example 40, 2-Methyl-N-[4-[(5-oxo-5H-pyrrolo[2,1-c]-[1,4]benzodiazepin 10(11H)-yl)carbonyl]phenyl]benzamide]",IC50,Rat Hepatic V1 Receptors; [2],2400 nM
same,IC50,[1]; [3],120 nM
"Cc1ccc(C(=O)Nc2ccc(C(=O)N3Cc4cccn4Cc4ccccc43)cc2)s1 [Example 355, N-[4-(5H-Pyrrolo[2,1-c][1,4]benzodiazepin-10(11)ylcarbonyl)phenyl]-5-methyl-2-thiophenecarboxamide]",IC50,Rat Hepatic V1 Receptors; [2],165 nM
same,IC50,[1]; [3],350 nM
"Cc1ccc(F)cc1C(=O)Nc1ccc(C(=O)N2Cc3cccn3Cc3ccccc32)cc1 [Example 465, N-[4-(5H-Pyrrolo[2,1-c][1,4]benzodiazepin-10(11H)-ylcarbonyl)phenyl]-5-fluoro-2-methylbenzamide]",Max. % Inhibition,Vasopressin V1,85%
same,Time (of max. % inhibition),Vasopressin V1,90 min
same,IC50,oxytocin receptors,33 nM
same,inhibition at 10 µM,"oxytocin receptors; dose 10 μM, [3H]oxytocin",93%
same,Osmolality,Vasopressin V2; 10 mg/kg orally,361 mOsm/kg
same,Urine Volume,Vasopressin V2; 10 mg/kg orally,21.8 ml/4 hrs
O=C(c1ccc(NP(=O)(Oc2ccccc2)Oc2ccccc2)cc1)N1Cc2cccn2Cc2ccccc21 [Example 492],IC50,Rat Hepatic V1 Receptors,160 nM
same,IC50,[1],3200 nM
"O=C(c1ccc(NS(=O)(=O)c2cc(Cl)ccc2Cl)cc1)N1Cc2cccn2Cc2ccccc21 [Example 493, 10-[4-[[(2,5-Dichlorophenyl)sulfonyl]amino]benzoyl]-10,11-dihydro-5H-pyrrolo[2,1-c][1,4]benzodiazepine]",IC50,Rat Hepatic V1 Receptors; [2],140 nM
same,inhibition at 10 µM,"[1]; 10 μM, rat",68%
"O=C(c1ccc(NS(=O)(=O)Cc2ccccc2)cc1)N1Cc2cccn2Cc2ccccc21 [Example 494, 10-[4-[[(Phenylmethyl)sulfonyl]amino]benzoyl]-10,11-dihydro-5H-pyrrolo[2,1-c][1,4]benzodiazepine]",IC50,Rat Hepatic V1 Receptors; [2],110 nM
same,IC50,[1]; [3],5800 nM
"CCOC(=O)c1ccc2n1Cc1ccccc1N(C(=O)c1ccc(NC(=O)c3ccc(Cl)cc3Cl)cc1)C2 [Example 596, Ethyl 10-[4-[(2,4-dichlorobenzoyl)amino]benzoyl]-10,11-dihydro-5H-pyrrolo[2,1-c][1,4]benzodiazepine-3-carboxylate]",IC50,oxytocin receptors,4000 nM
same,inhibition at 10 µM,"oxytocin receptors; dose 10 μM, [3H]oxytocin",86%
same,Osmolality,Vasopressin V2; 10 mg/kg orally,1347 mOsm/kg
same,Urine Volume,Vasopressin V2; 10 mg/kg orally,2.8 ml/4 hrs
Cc1ccccc1C(=O)Nc1ccc(C(=O)N2Cc3ccc(CN(C)C)n3Cc3ccccc32)cc1 [Example 660],IC50,Rat Hepatic V1 Receptors; [2],73 nM
same,IC50,[1]; [3],64 nM
"Cc1ccccc1C(=O)Nc1ccc(C(=O)N2Cc3ccc(CN4CCCCC4)n3Cc3ccccc32)cc1 [Example 661, N-[4-[[3-(1-piperidinylmethyl)-5H-pyrrolo[2,1-c][1,4]benzodiazepin-10(11H)-yl]carbonyl]phenyl]-2-methyl-benzamide]",IC50,Rat Hepatic V1 Receptors; [2],57 nM
same,IC50,[1]; [3],57 nM
"Cc1ccccc1C(=O)Nc1ccc(C(=O)N2Cc3ccc(CN4CCOCC4)n3Cc3ccccc32)cc1 [Example 662, N-[4-[[3-(4-morpholinomethyl)-5H-pyrrolo[2,1-c][1,4]benzodiazepin-10(11H)-yl]carbonyl]phenyl]-2-methyl-benzamide]",IC50,Rat Hepatic V1 Receptors; [2],40 nM
same,IC50,[1]; [3],35 nM
"N-[4-(4H-Pyrazolo[5,1-c][1,4]benzo-diazepin-5(10H)-ylcarbonyl)phenyl]-2-methoxybenzeneacetamide [Example 215]",IC50,oxytocin receptors,570 nM
same,% Inhibition at 10 μM,"oxytocin receptors; dose 10 μM, [3H]oxytocin",74%
same,Osmolality,Vasopressin V2; 30 mg/kg orally,1520 mOsm/kg
same,Urine Volume,Vasopressin V2; 30 mg/kg orally,0.7 ml/4 hrs
